Assay results: ChEMBL document CHEMBL1124087, “Chemistry and positive inotropic effect of pelrinone and related derivatives. A novel class of 2-methylpyrimidones as inotropic agents” (J Med Chem, 1988); call rule not given here
Values joined by “and” are separate entries in the source; they are usually repeats but may differ in a detail not shown here. Equal values may be shown once.

Assays:
Felis catus [1] = species: Felis catus; experiment: In vitro chronotropic effect in right artium of cat (Inactive); assay type: functional; further: test concentration or dose not given here
Felis catus [2] = species: Felis catus; experiment: In vitro inotropic effect in cat papillary muscle (Inactive); assay type: functional, Muscle tissue
Canis familiaris [3] = experiment: Inotropic effect in the dogs with pentobarbtial-induced heart failure, id administration; assay type: functional; conditions: Canis lupus familiaris
Canis familiaris [4] = experiment: Inotropic effect in dogs with pentobarbitial-induced heart failure, iv administration; assay type: functional; conditions: Canis lupus familiaris
Canis familiaris [5] = species: Canis familiaris; experiment: (§1) ED20/ED50 ratio (BP/ inotropic) of the compound; assay type: functional, Canis lupus familiaris
Felis catus [6] = species: Felis catus; experiment: Chronotropic effects were assayed in vitro in the isolated right artium of the cat.; assay type: functional
Canis familiaris [7] = experiment: (§2) Reduced arterial blood pressure after Id administration in dogs with pentobarbital-induced heart failure; assay type: functional; conditions: Canis lupus familiaris
Felis catus [8] = species: Felis catus; experiment: The inotropic activity was assayed in vitro in cat papillary muscle; assay type: functional, Muscle tissue
Felis catus [9] = species: Felis catus; experiment: Ratio of Chronotropic (C) EC50 to inotropic (I) EC50
Canis familiaris [10] = experiment: as §2; assay type: functional; conditions: Canis lupus familiaris; remark: listed apart in the source
Canis familiaris [11] = experiment: Inotropic effect in anesthetized dogs; assay type: functional; conditions: Canis lupus familiaris
Phosphodiesterase 3B = Phosphodiesterase 3B (Bos taurus, UniProt E1BN64); experiment: (§3) Inhibition of bovine cardiac phosphodiesterase fraction III
Phosphodiesterase 3B, sequence (E1BN64 whole entry): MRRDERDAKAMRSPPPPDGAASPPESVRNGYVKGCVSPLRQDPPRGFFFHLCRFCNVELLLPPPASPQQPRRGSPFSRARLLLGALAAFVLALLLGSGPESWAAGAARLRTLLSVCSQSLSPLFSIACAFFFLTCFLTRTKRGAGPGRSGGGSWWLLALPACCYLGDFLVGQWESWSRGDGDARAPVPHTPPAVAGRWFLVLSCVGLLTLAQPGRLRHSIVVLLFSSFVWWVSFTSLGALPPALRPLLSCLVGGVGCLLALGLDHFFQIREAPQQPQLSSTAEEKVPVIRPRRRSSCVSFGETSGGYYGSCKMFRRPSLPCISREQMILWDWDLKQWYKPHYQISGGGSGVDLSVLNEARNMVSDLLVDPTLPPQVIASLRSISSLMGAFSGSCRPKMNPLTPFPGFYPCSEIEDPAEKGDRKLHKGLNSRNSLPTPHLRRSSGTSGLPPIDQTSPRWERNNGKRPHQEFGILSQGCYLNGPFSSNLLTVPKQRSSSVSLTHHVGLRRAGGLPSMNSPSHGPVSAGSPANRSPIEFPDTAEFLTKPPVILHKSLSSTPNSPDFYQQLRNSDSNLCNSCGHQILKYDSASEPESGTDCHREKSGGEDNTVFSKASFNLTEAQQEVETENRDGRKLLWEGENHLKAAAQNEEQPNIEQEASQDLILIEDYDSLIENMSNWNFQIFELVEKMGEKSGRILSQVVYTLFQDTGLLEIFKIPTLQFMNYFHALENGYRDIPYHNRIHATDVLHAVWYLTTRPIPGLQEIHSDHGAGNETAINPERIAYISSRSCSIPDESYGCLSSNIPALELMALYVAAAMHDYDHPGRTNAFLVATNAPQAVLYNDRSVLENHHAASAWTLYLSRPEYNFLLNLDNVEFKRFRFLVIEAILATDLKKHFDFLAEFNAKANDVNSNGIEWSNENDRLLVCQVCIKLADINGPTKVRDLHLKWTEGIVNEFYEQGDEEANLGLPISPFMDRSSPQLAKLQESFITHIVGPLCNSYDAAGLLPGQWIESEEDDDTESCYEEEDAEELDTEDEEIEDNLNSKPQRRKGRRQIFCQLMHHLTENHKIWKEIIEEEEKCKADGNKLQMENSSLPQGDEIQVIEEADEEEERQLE

[12] = (§4) Inhibition of crude bovine cardiac phosphodiesterase; assay type: functional, Bos taurus
Felis catus [13] = species: Felis catus; experiment: In vitro inotropic effect in cat papillary muscle; assay type: functional
Canis familiaris [14] = experiment: as §2; assay type: functional; conditions: Canis lupus familiaris; remark: listed apart in the source
[15] = as §4; design: species or system Bos taurus
Canis familiaris [16] = species: Canis familiaris; experiment: (§5) Ratio of Chronotropic (C) EC50 to inotropic (I) EC50; assay type: functional, Canis lupus familiaris
[17] = as §3; design: species or system Bos taurus
Felis catus [18] = species: Felis catus; experiment: as §5; assay type: functional
Canis familiaris [19] = experiment: Inotropic effect in dogs with pentobarbital-induced heart failure, iv administration; assay type: functional; conditions: Canis lupus familiaris
Canis familiaris [20] = species: Canis familiaris; experiment: as §1; assay type: functional, Canis lupus familiaris; remark: listed apart in the source
Canis familiaris [21] = experiment: as §2; assay type: functional; conditions: Canis lupus familiaris; remark: listed apart in the source
Canis familiaris [22] = experiment: Inotropic effect in dogs with pentobarbtial-induced heart failure, iv administration; assay type: functional; conditions: Canis lupus familiaris
[23] = Felis catus, Muscle tissue, read-out: EC50

SMILES | EC50 (Felis catus [1]) | EC50 (Felis catus [2]) | EC50 (Felis catus [6]) | EC50 (Felis catus [8]; [23]) [µM] | Ratio (Felis catus [9]) | also measured
Cc1nc(Cl)c(C#N)c(NCc2cccnc2)n1 | Not Active | Not Active |  |  |  | 
CCNc1nc(C)nc(O)c1C#N |  |  | 300 uM l-1 | 2.6 | 115 | ED50 (Canis familiaris [3]): 0.06 mg/kg; ED50 (Canis familiaris [4]): 0.027 mg/kg; Ratio (Canis familiaris [5]): 1.4 and 1.2; ED20 (Canis familiaris [7]): 0.37 mg/kg; ED20 (Canis familiaris [10]): 0.07 mg/kg
N#Cc1c(O)ncnc1NCc1cccnc1 | Not Active | Not Active |  |  |  | 
Cc1nc(O)c(C#N)c(NCc2ccco2)n1 |  |  |  | 10 | 8.8 | EC50 (Felis catus [6]; Felis catus, read-out: EC50): 88 µM
CNc1nc(C)nc(NCc2cccnc2)c1C#N | Not Active | Not Active |  |  |  | 
Cc1nc(O)c(C#N)c(NCc2ccncc2)n1 |  |  | 250 uM l-1 | 4.4 | 57 | 
CC(C)(C)c1nc(O)c(C#N)c(NCc2cccnc2)n1 |  |  | 110 uM l-1 | 55 | 2 | 
COc1nc(C)nc(NCc2cccnc2)c1C#N | Not Active | Not Active |  |  |  | 
O=C1CCC(c2ccc(-n3ccnc3)cc2)=NN1 [IMAZODAN] |  |  |  | 7 |  | ED50 (Canis familiaris [11]): 0.08 mg/kg; IC50 (Phosphodiesterase 3B): 94 µM; IC50 [12]: 145 µM
N#Cc1c(O)nc(O)nc1NCc1cccnc1 | Not Active | Not Active |  |  |  | 
CCc1nc(O)c(C#N)c(NCc2cccnc2)n1 |  |  |  | 5.5 | 16 | EC50 (Felis catus [6]; Felis catus, read-out: EC50): 86 µM
Cc1nc(O)c(C#N)c(NCCc2ccncc2)n1 |  |  | 396 uM l-1 | 6.5 | 61 | 
Cc1nc(=O)c(C#N)c(NCc2cccnc2)[nH]1 [PELRINONE] |  |  | 212 uM l-1 | 5.9 |  | ED50 (Canis familiaris [3]): 0.2 mg/kg; ED50 (Canis familiaris [4]): 0.033 mg/kg; EC50 (Felis catus [13]): 5 µM; ED20 (Canis familiaris [14]): > 3 mg/kg; IC50 [15]: 76 µM; ED50 (Canis familiaris [11]): 0.03 mg/kg; Ratio (Canis familiaris [16]): 36; ED20 (Canis familiaris [7]): 0.12 mg/kg; IC50 [17]: 36 µM
Cc1nc(O)c(Br)c(NCc2cccnc2)n1 |  |  | 380 uM l-1 | 3.9 |  | Ratio (Felis catus [18]): 97; ED50 (Canis familiaris [3]): 0.022 mg/kg; ED50 (Canis familiaris [19]): 0.018 mg/kg; Ratio (Canis familiaris [20]): 2.3 and 4.5; EC50 (Felis catus [13]): 2.5 µM; IC50 [15]: 35 µM; ED50 (Canis familiaris [11]): 0.012 mg/kg; ED20 (Canis familiaris [7]): 0.041 mg/kg; ED20 (Canis familiaris [10]): 0.1 mg/kg; IC50 [17]: 15 µM
Cc1nc(O)c([N+](=O)[O-])c(NCc2cccnc2)n1 |  |  | > 1000 uM l-1 | 5.3 | >189 | 
Cc1nc(O)c(C#N)c(NCc2ccccn2)n1 |  |  | 180 uM l-1 | 43 | 4 | 
Cc1nc(O)c(C(N)=O)c(NCc2cccnc2)n1 | Not Active | Not Active |  |  |  | 

SMILES | EC50 (Felis catus [1]) | EC50 (Felis catus [2]) | EC50 (Felis catus [6]) | EC50 (Felis catus [8]; [23]) [µM] | Ratio (Felis catus [9]) | also measured
CC(=O)c1c(O)nc(C)nc1NCc1cccnc1 | Not Active | Not Active |  |  |  | 
CCCNc1nc(C)nc(O)c1C#N |  |  |  | 1.9 | 9 | EC50 (Felis catus [6]; Felis catus, read-out: EC50): 17 µM
Cc1nc(O)c(C#N)c(NCCc2cccnc2)n1 |  |  | 300 uM l-1 |  | 1.3 | EC50 (Felis catus [8]): 230 uM l-1
Cc1nc(S)c(C#N)c(NCc2cccnc2)n1 |  |  |  | 14 | 6 | EC50 (Felis catus [6]; Felis catus, read-out: EC50): 80 µM
N#Cc1c(O)nc(-c2ccccc2)nc1NCc1cccnc1 | Not Active | Not Active |  |  |  | 
N#Cc1c(O)nc(Cc2ccccc2)nc1NCc1cccnc1 |  |  | ~ 1000 uM l-1 | 72 | 14 | 
Cc1nc(O)c(Cl)c(NCCc2ccccc2)n1 |  |  | > 1000 uM l-1 | 1.2 | >833 | 
CSc1nc(C)nc(NCc2cccnc2)c1C#N | Not Active | Not Active |  |  |  | 
Cc1nc(O)c(C#N)c(NCCc2ccccn2)n1 |  |  |  | 37 | 2 | EC50 (Felis catus [6]; Felis catus, read-out: EC50): 71 µM
CCNc1nc(C)nc(O)c1C(C)=O | Not Active | Not Active |  |  |  | 
CSc1ccc(C(=O)c2[nH]c(=O)[nH]c2C)cc1 [ENOXIMONE] |  |  | 200 uM l-1 | 90 | 2.2 | 
CCNc1nc(C)nc(O)c1Br |  |  | 420 uM l-1 | 4.1 |  | Ratio (Felis catus [18]): 102; ED50 (Canis familiaris [3]): 0.03 mg/kg; ED50 (Canis familiaris [19]): 0.01 mg/kg; Ratio (Canis familiaris [20]): 1.6; Ratio (Canis familiaris [5]): <0.3; ED50 (Canis familiaris [11]): 0.01 mg/kg; ED20 (Canis familiaris [7]): < 0.003 mg/kg; EC50 (Felis catus [8]; read-out: EC50): 2.8 µM; ED20 (Canis familiaris [21]): 0.05 mg/kg; IC50 [17]: 38 µM
Cc1nc(O)c(Br)c(NCCc2ccccc2)n1 |  |  | > 1000 uM l-1 | 6.1 | >164 | ED50 (Canis familiaris [3]): > 1 mg/kg; ED20 (Canis familiaris [7]): < 0.01 mg/kg; ED50 (Canis familiaris [22]): 0.029 mg/kg; ED20 (Canis familiaris [10]): > 1 mg/kg
CCNc1nc(C)nc(O)c1[N+](=O)[O-] |  |  | 230 uM l-1 | 25 | 9 | 
Cc1nc(O)c(C#N)c(NCCc2ccccc2)n1 |  |  | > 1000 uM l-1 | 20 | >50 | ED50 (Canis familiaris [3]): 0.22 mg/kg; ED50 (Canis familiaris [4]): 0.07 mg/kg; ED20 (Canis familiaris [7]): 0.027 mg/kg; ED20 (Canis familiaris [10]): 0.3 mg/kg
Cc1[nH]c(=O)c(C#N)cc1-c1ccncc1 [MILRINONE] |  |  | ~ 300 uM l-1 | 7.7 |  | Ratio (Felis catus [18]): ~39; ED50 (Canis familiaris [3]): 0.04 mg/kg; ED50 (Canis familiaris [19]): 0.016 mg/kg; Ratio (Canis familiaris [20]): 2.5; Ratio (Canis familiaris [5]): 3; EC50 (Felis catus [13]): 6.5 µM; IC50 [15]: 192 µM; ED50 (Canis familiaris [11]): 0.02 mg/kg; ED20 (Canis familiaris [7]): 0.048 mg/kg; ED20 (Canis familiaris [10]): 0.1 mg/kg; IC50 [17]: 28 µM
